The values below come from patent EP4467640A1, “MICROORGANISM AND METHOD FOR THE IMPROVED PRODUCTION OF CYSTEINE AND/OR DERIVATIVES THEREOF” (Metabolic Explorer, priority 2023, dated 2024).

The target in data set [1] is O-phosphoserine sulfhydrylase from Mycolicibacterium smegmatis (OPSSmsm), SEQ ID NO: 104 (Mycolicibacterium smegmatis, UniProt A0R1X2). As to the kind of experiment: O-phosphoserine sulfhydrylase (OPSS) activity, cysteine formation (Gaitonde method), kinetic parameters of purified enzyme. In kind it is biochemical, Mycolicibacterium smegmatis (strain ATCC 700084 / mc(2)155).
Chain of O-phosphoserine sulfhydrylase from Mycolicibacterium smegmatis (OPSSmsm), SEQ ID NO: 104 (A0R1X2 1-323): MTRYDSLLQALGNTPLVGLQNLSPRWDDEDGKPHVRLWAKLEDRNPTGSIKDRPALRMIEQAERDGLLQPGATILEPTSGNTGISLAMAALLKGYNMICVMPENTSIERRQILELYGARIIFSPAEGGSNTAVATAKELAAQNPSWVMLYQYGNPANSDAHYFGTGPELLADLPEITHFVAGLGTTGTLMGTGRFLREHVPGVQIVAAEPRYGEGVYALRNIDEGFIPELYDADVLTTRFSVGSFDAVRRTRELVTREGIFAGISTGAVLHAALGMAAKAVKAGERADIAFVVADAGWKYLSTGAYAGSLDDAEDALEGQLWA

Data set [2] has as its target O-phosphoserine sulfhydrylase from Geobacter sulfurreducens (OPSSgsu), SEQ ID NO: 2 (Geobacter sulfurreducens, UniProt Q747V7). The description is as above. In kind it is biochemical. The conditions noted are these: pH 7.5, 30°C; read-out: Km (Na2S).
For data set [3], the target named is O-phosphoserine sulfhydrylase from Rhodothermus marinus (OPSSrma), SEQ ID NO: 4 (Rhodothermus marinus, UniProt D0MJA5). The description is as above. The data set is classed as biochemical, Rhodothermus marinus (strain ATCC 43812 / DSM 4252 / R-10). The note with it: pH 7.5, 30°C; read-out: Km (Na2S).
The subject of data set [4] is O-phosphoserine sulfhydrylase from Dethiobacter alkaliphilus (OPSSdal), SEQ ID NO: 106. The data set is described as above. The data set is classed as biochemical, Dethiobacter alkaliphilus AHT 1. As for the experimental part:
This reaction solution, except the enzymes, were incubated at 30°C for 10 min. After then, 0.5 to 1 µg of purified OPSS was added to the reaction solution, incubated at 30°C. 100 µl of the enzyme reaction solutions were taken after 5 min, 10 min, 15 min and mixed with 50 µl cold 1.5 M TCA to stop the enzymatic reaction. The cysteine concentrations in the enzyme reaction solution were quantified by measuring absorbance at OD560 nm according to Gaitonde method (Gaitonde,M.K. (1967), Biochem. J. 104, 627-633).
Kinetic parameters were determined using Sigmaplot.

Substrate in data set [5]: N[C@@H](COP(=O)(O)O)C(=O)O
As to the kind of experiment: purified protein, by the assay type. The note with it: fixed Na2S 50 mM, O-phosphoserine 0.5-100 mM, 100 mM Hepes pH 7.5, 30°C.

By Km is commonly meant the substrate concentration at which the rate is half of its maximum. For Na2S, the Km in data set [1] (pH 7.5, 30°C, read-out: Km (Na2S)) came out at 1.4 mM; in data set [2], 16 mM; in data set [3], 13 mM.

By inhibition is commonly meant the share of the control response that was lost under treatment. Broadly, the kcat is the number of substrate molecules converted per active site and unit of time at saturation. As to `N[C@@H](COP(=O)(O)O)C(=O)O` [OPS, O-phosphoserine], the inhibition at 20000 µM in data set [1] (read-out: activity lost (inhibition by O-Phosphoserine)) worked out at 50%. In addition, the kcat in data set [4] (calculated from the O-phosphoserine saturation curves, Na2S 50 mM, pH 7.5, 30°C) is 19 s⁻¹. Also, the Michaelis-Menten constant (Km) in data set [4] (read-out: Km (OPS), fixed Na2S 50 mM, O-phosphoserine 0.5-100 mM, 100 mM Hepes pH 7.5, 30°C) turned out to be 17 mM.

B1: O-phosphoserine sulfhydrylase from Geobacter sulfurreducens (OPSSgsu), SEQ ID NO: 2 (Geobacter sulfurreducens PCA) (protein)
chain: MEHPPFSLAGSIGATPLVELRHLNPNPRVRILAKLEGNNVGGSVKDRPALYMLAKAEESGELVPEKTILEPTSGNTGIALAMLGTVKGYRVKLVMPACVSLERRAVLEAYGAELVLSPHDEATDGAIRLAHRILEEEPDRYYMPNQYANPNNPLAHYETTAPEIFRDTGGAVDFFVAGMGTGGTLMGTSRYFREKKPSVRIVGVEPRLGHKVQGLKNMQEAIVPPIYHPEALDLKLTVHDEPAFDTARELAAREGLFVGMSSGAAVAGAVQVARDAPAGSTIVVLLPDRGDRYLSTVLFRSVCGKCPP
As for B1, in data set [5] (other: OPSSgsu), the Michaelis constant (Km) is 16 mM and the kcat amounted to 58 s⁻¹.

B2: O-phosphoserine sulfhydrylase from Rhodothermus marinus (OPSSrma), SEQ ID NO: 4 (Rhodothermus marinus DSM 4252) (protein)
chain: MFAETLQTTTNTRPLSGTELIRAIGHTPLIRLRRVARHLPETVAVYVKAEHLNPGGSVKDRPALRMVLEGLRSGALREGRALIDATSGNTGIAYAMLGAALGFPVTLAMPANASPERKRILKAYGAELILTDPMEGTDGAQRYVRELVQQEPDRYFYPDQYNNDANWRAHYEGTGIEILEQTGGRVTHFVAGLGTTGTFVGVSRRLKAHNPAIRCYALQPDSPLHGLEGLKHLETAIVPGIYDPSLVDEHLSCSTEEAFEMTRRLAREEGLFVGPSSGANVAAALHIAEQLDRGVVVTVLCDTGARYLSEPFWEETP
Turning to B2, in data set [5] (other: OPSSrma), the Michaelis constant (Km) was found to be 6 mM and the kcat amounted to 47 s⁻¹.
